From US12403154B2, “Administration of sting agonist and checkpoint inhibitors” (Takeda Pharmaceutical Company Limited, priority 2019, dated 2025)

Tests used:
Assay type in all cases: in vivo
[1] = system: A20 mouse B-cell lymphoma cell line; assay: A20 mouse syngeneic tumor model (Study 1)
Experimental: A20 Study 1: A20 is a mouse B-cell lymphoma cell line. A20 mouse syngeneic tumor model was generated by subcutaneous inoculation with 0.4×10^6 A20 cells (cell suspension) in approximately 9 weeks old female BALB/c mice (Vital River Laboratory Animal Technology Co., Ltd., Beijing, China) in the flank. When the mean tumor volume reached approximately 55 mm^3, the animals were randomized into one vehicle control and three treatment groups (n=10/group). Mice were then dosed with PBS or Compound No. 14 or anti-mouse PD-1 antibody or Compound No. 14 plus anti-mouse PD-1 antibody over a 31-day period. Tumor growth and body weight were measured twice per week during the treatment and post-treatment periods, and mice were humanely euthanized once they had reached their humane endpoint. […]
(§1) Tumors were measured twice weekly using vernier calipers. Tumor volumes were calculated using standard equation: V=W^2×L/2, where V=volume, W=width, and L=length for the tumor. […] Tumor size and body weight were measured twice a week for the duration of the study. […]
(§2) After the transformation, linear interpolation was used to estimate the time (in days) since randomization each mouse's tumor volume reaches 1000 mm^3. […] In case of a mouse's tumor having not reached 1000 mm^3 at the end of study, the last day the mouse was on study was recorded and right-censored. […]

[2] = system: L5178-R mouse lymphoma cell line; assay: L5178-R mouse syngeneic tumor model (Study 2); settings: vs PBS, time-to-progression (tumor 1000 mm^3), Compound No. 14 0.25 mg/kg IV Day 0, 3, 6, anti-mPD-1 10 mg/kg IP Day 0, 3, 6
Experimental: L5178-R Study 2: L5178-R is a mouse lymphoma cell line. L5178-R mouse syngeneic tumor model was generated by subcutaneous inoculation with 0.2×10^6 L5178-R cells (cell suspension) in approximately 12 weeks old female DBA/2 mice (Vital River Laboratory Animal Technology Co., Ltd., Beijing, China) in the flank. When the mean tumor volume reached approximately 65 mm^3, the animals were randomized into one vehicle control and four treatment groups (n=10/group). Mice were then dosed with PBS or Compound No. 14 or anti-mouse PD-1 antibody or Compound No. 14 plus anti-mouse PD-1 antibody at 10 mg/kg (Q3D×3 & QW×3) over a 10-day period. Tumor growth and body weight were measured twice per week during the treatment and post-treatment periods, and mice were humanely euthanized once they had reached their humane endpoint. […]
as §1, §2

[3] = system: L1210 mouse leukemia cell line; assay: L1210 mouse syngeneic tumor model (Study 5); settings: vs PBS, time-to-progression (tumor 1000 mm^3), Compound No. 14 0.25 mg/kg IV Day 0, 3, 6, anti-mPD-1 10 mg/kg IP Day 0, 3, 6, 13
Experimental: L1210 Study 5: L1210 is a mouse leukemia cell line. L1210 mouse syngeneic tumor model was generated by subcutaneous inoculation with 0.02×10^6 L1210 cells (cell suspension) in approximately 11 weeks old female DBA/2 mice (Vital River Laboratory Animal Technology Co., Ltd., Beijing, China) in the flank. When the mean tumor volume reached approximately 50 mm^3, the animals were randomized into one vehicle control and four treatment groups (n=10/group). Mice were then dosed with PBS or Compound No. 14 or anti-mouse PD-1 antibody or Compound No. 14 plus anti-mouse PD-1 antibody over a 15-day period. Tumor growth and body weight were measured twice per week during the treatment and post-treatment periods, and mice were humanely euthanized once they had reached their humane endpoint. […]
as §1, §2

[4] = system: WEHI-3 mouse myelomonocytic leukemia cell line; assay: WEHI-3 mouse syngeneic tumor model (Study 3); settings: WEHI3 model; vs PBS; time-to-progression (tumor 1000 mm^3); Compound No. 14 0.25 mg/kg IV Day 0, 3, 6; anti-mPD-1 10 mg/kg IP Day 0, 3, 6, 13
Experimental: WEHI-3 Study 3: WEHI-3 is a mouse myelomonocytic leukemia cell line. WEHI-3 mouse syngeneic tumor model was generated by subcutaneous inoculation with 0.1×10^6 WEHI-3 cells (cell suspension) in approximately 11 weeks old female BALB/c mice (Vital River Laboratory Animal Technology Co., Ltd., Beijing, China) in the flank. When the mean tumor volume reached approximately 60 mm^3, the animals were randomized into one vehicle control and four treatment groups (n=10/group). Mice were then dosed with PBS or Compound No. 14 or anti-mouse PD-1 antibody or Compound No. 14 plus anti-mouse PD-1 antibody over a 21-day period. Tumor growth and body weight were measured twice per week during the treatment and post-treatment periods, and mice were humanely euthanized once they had reached their humane endpoint. […]
as §1, §2

[5] = system: RM-1 mouse prostate carcinoma cell line; assay: RM-1 mouse syngeneic tumor model (Study 4); settings: RM-1 model; vs PBS; time-to-progression (tumor 1000 mm^3); Compound No. 14 0.25 mg/kg IV Day 0, 3, 6; anti-mPD-1 10 mg/kg IP Day 0, 3, 6, 13
Experimental: RM-1 Study 4: RM-1 is a mouse prostate carcinoma cell line. RM-1 mouse syngeneic tumor model was generated by subcutaneous inoculation with 0.8×10^6 RM-1 cells (cell suspension) in 10 weeks old female C57BL/6 mice (Vital River Laboratory Animal Technology Co., Ltd., Beijing, China) in the flank. When the mean tumor volume reached approximately 60 mm^3, the animals were randomized into one vehicle control and four treatment groups (n=10/group). Mice were then dosed with PBS or Compound No. 14 or anti-mouse PD-1 antibody or Compound No. 14 plus anti-mouse PD-1 antibody over a 19-day period. Tumor growth and body weight were measured twice per week during the treatment and post-treatment periods, and mice were humanely euthanized once they had reached their humane endpoint. […]
as §1, §2

Nc1ncnc2c1ncn2[C@@H]1O[C@@H]2COP(=O)(S)O[C@@H]3[C@H](O)[C@@H](COP(=O)(S)O[C@H]2[C@H]1F)O[C@H]3n1cc(F)c2c(=O)[nH]cnc21 (stereo partly drawn) [Compound No. 14]
HR (Weibull) ([1]; A20 model, vs PBS, time-to-progression (tumor 1000 mm^3), Compound No. 14 0.25 mg/kg IV Day 0, 3, 6, anti-mPD-1 10 mg/kg IP Day 0, 3, 6, 13, 20, 27): 0.104 | complete responses ([1]; A20 study, 31 days, n=10/group): one | HR (Weibull) [2]: 0.544 | HR (Weibull) [3]: 0.118 | HR (Weibull) [4]: 0.0487 | HR (Weibull) [5]: 0.425
